Patent publication US6737383B1, “Herbicidal oxadiazolidines” (priority 1999, dated 2004)

Columns and labels:
bedstraw = assay: Test B pre/postemergence bedstraw; type: in vivo, Galium aparine; settings: Postemergence
Summary of the method: (§1)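 Herbicidal effect was estimated by eye on a ten-point control scale after plants spent twelve to sixteen days in a greenhouse following soil or foliar treatment. Foliar sprays targeted plants at one to four leaves; all doses were formulated in a non-phytotoxic solvent with surfactant.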

surinam grass = assay: Test B pre/postemergence surinam grass; type: in vivo, Brachiaria decumbens
Summary of the method: as §1

cocklebur = assay: Test B pre/postemergence cocklebur; type: in vivo, Xanthium strumarium
Summary of the method: as §1

corn = assay: Test B pre/postemergence corn; type: in vivo, Zea mays
Summary of the method: as §1

giant foxtail = assay: Test B pre/postemergence giant foxtail; type: in vivo, Setaria faberii
Summary of the method: as §1

pigweed = assay: Test B pre/postemergence pigweed; type: in vivo, Amaranthus retroflexus
Summary of the method: as §1

rape = assay: Test B pre/postemergence rape; type: in vivo, Brassica napus
Summary of the method: as §1

soybean = assay: Test B pre/postemergence soybean; type: in vivo, Glycine max
Summary of the method: as §1

sugar beet = assay: Test B pre/postemergence sugar beet; type: in vivo, Beta vulgaris
Summary of the method: as §1

velvetleaf = assay: Test B pre/postemergence velvetleaf; type: in vivo, Abutilon theophrasti
Summary of the method: as §1

wheat = assay: Test B pre/postemergence wheat; type: in vivo, Triticum aestivum
Summary of the method: as §1

wild oat = assay: Test B pre/postemergence wild oat; type: in vivo, Avena fatua
Summary of the method: as §1

purple nutsedge = assay: Test B pre/postemergence purple nutsedge; type: in vivo, Cyperus rotundus
Summary of the method: as §1

rice = assay: Test B flood test rice; type: in vivo, Oryza sativa
Summary of the method: (§2)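 Plants were grown to the 2-leaf stage before treatment with test chemical, then held in a greenhouse for twelve to sixteen days. Injury was visually rated against untreated controls on a 0–10 scale, where 0 is no effect and 10 is complete control.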

smallflower flatsedge = assay: Test B flood test smallflower flatsedge; type: in vivo, Cyperus difformis
Summary of the method: as §2

duck salad = assay: Test B flood test duck salad; type: in vivo, Heteranthera limosa
Summary of the method: as §2

[1] = Postemergence, Rate 500 g/ha, scale of 0 to 10 where 0 is no effect and 10 is complete control
[2] = Preemergence, Rate 62 g/ha, scale 0 to 10 (0 no effect, 10 complete control)
[3] = Preemergence, Rate 125 g/ha, scale of 0 to 10 where 0 is no effect and 10 is complete control
[4] = Preemergence, Rate 250 g/ha, scale 0 to 10, 0 is no effect, 10 is complete control
[5] = Preemergence, Rate 500 g/ha, scale 0 to 10, 0 is no effect, 10 is complete control
[6] = Rate 62 g/ha, Postemergence, scale of 0 to 10 where 0 is no effect and 10 is complete control
[7] = Rate 125 g/ha, Postemergence, scale 0 to 10, 0 is no effect, 10 is complete control
[8] = Postemergence, Rate 250 g/ha, scale 0 to 10
[9] = Postemergence block (flood test species), Rate 250 g/ha, scale 0 to 10
[10] = Postemergence section (flood test species), Rate 500 g/ha, scale of 0 to 10 where 0 is no effect and 10 is complete control
[11] = Rate 125 g/ha, Postemergence section (flood test species), scale 0 to 10, 0 is no effect, 10 is complete control

SMILES: CC(C)N(C(=O)n1oc(=O)n(CC2=NOCCC2)c1=O)c1ccccc1 [Compound 430]
- Bedstraw plant response rating (bedstraw; Rate 250 g/ha, scale 0 to 10): 0
- Bedstraw plant response rating (bedstraw; Rate 500 g/ha, scale of 0 to 10 where 0 is no effect and 10 is complete control): 3
- Bedstraw plant response rating (bedstraw; Rate 125 g/ha, scale 0 to 10, 0 is no effect, 10 is complete control): 0
- B. signalgrass plant response rating (surinam grass; Postemergence, Rate 250 g/ha, scale 0 to 10, 0 no effect, 10 complete control): 6
- B. signalgrass plant response rating (surinam grass; [1]): 8
- Plant response rating, B. signalgrass (surinam grass; [2]): 1
- Plant response rating, B. signalgrass (surinam grass; [3]): 2
- B. signalgrass plant response rating (surinam grass; [4]): 3
- B. signalgrass plant response rating (surinam grass; [5]): 3
- B. signalgrass plant response rating (surinam grass; [6]): 0
- B. signalgrass plant response rating (surinam grass; [7]): 1
- Cocklebur plant response rating (cocklebur; [8]): 0
- Cocklebur plant response rating (cocklebur; [1]): 1
- Plant response rating, Cocklebur (cocklebur; [2]): 0
- Plant response rating, Cocklebur (cocklebur; [3]): 0
- Cocklebur plant response rating (cocklebur; [4]): 0
- Cocklebur plant response rating (cocklebur; [5]): 0
- Cocklebur plant response rating (cocklebur; [6]): 0
- Cocklebur plant response rating (cocklebur; [7]): 0
- Corn plant response rating (corn; [8]): 2
- Corn plant response rating (corn; [1]): 4
- Plant response rating, Corn (corn; [2]): 0
- Plant response rating, Corn (corn; [3]): 0
- Corn plant response rating (corn; [4]): 0
- Corn plant response rating (corn; [5]): 2
- Corn plant response rating (corn; [6]): 0
- Corn plant response rating (corn; [7]): 0
- Giant foxtail plant response rating (giant foxtail; [8]): 9
- Giant foxtail plant response rating (giant foxtail; [1]): 9
- Plant response rating, Giant foxtail (giant foxtail; [2]): 10
- Plant response rating, Giant foxtail (giant foxtail; [3]): 10
- Giant foxtail plant response rating (giant foxtail; [4]): 10
- Giant foxtail plant response rating (giant foxtail; [5]): 10
- Giant foxtail plant response rating (giant foxtail; [6]): 6
- Giant foxtail plant response rating (giant foxtail; [7]): 8
- Redroot pigweed plant response rating (pigweed; [8]): 3
- Redroot pigweed plant response rating (pigweed; [1]): 3
- Plant response rating, Redroot pigweed (pigweed; [2]): 0
- Plant response rating, Redroot pigweed (pigweed; [3]): 0
- Redroot pigweed plant response rating (pigweed; [4]): 2
- Redroot pigweed plant response rating (pigweed; [5]): 7
- Redroot pigweed plant response rating (pigweed; [7]): 2
- Rape plant response rating (rape; [8]): 0
- Rape plant response rating (rape; [1]): 0
- Plant response rating, Rape (rape; [2]): 0
- Plant response rating, Rape (rape; [3]): 0
- Rape plant response rating (rape; [4]): 0
- Rape plant response rating (rape; [5]): 4
- Rape plant response rating (rape; [7]): 0
- Soybean plant response rating (soybean; [8]): 3
- Soybean plant response rating (soybean; [1]): 3
- Plant response rating, Soybean (soybean; [2]): 0
- Plant response rating, Soybean (soybean; [3]): 0
- Soybean plant response rating (soybean; [4]): 0
- Soybean plant response rating (soybean; [5]): 0
- Soybean plant response rating (soybean; [7]): 1
- Sugarbeets plant response rating (sugar beet; [8]): 0
- Sugarbeets plant response rating (sugar beet; [1]): 0
- Plant response rating, Sugarbeets (sugar beet; [2]): 0
- Plant response rating, Sugarbeets (sugar beet; [3]): 0
- Sugarbeets plant response rating (sugar beet; [4]): 0
- Sugarbeets plant response rating (sugar beet; [5]): 0
- Sugarbeets plant response rating (sugar beet; [7]): 0
- Velvetleaf plant response rating (velvetleaf; [8]): 0
- Velvetleaf plant response rating (velvetleaf; [1]): 3
- Plant response rating, Velvetleaf (velvetleaf; [2]): 0
- Plant response rating, Velvetleaf (velvetleaf; [3]): 2
- Velvetleaf plant response rating (velvetleaf; [4]): 4
- Velvetleaf plant response rating (velvetleaf; [5]): 7
- Velvetleaf plant response rating (velvetleaf; [7]): 0
- Wheat plant response rating (wheat; [8]): 0
- Wheat plant response rating (wheat; [1]): 0
- Plant response rating, Wheat (wheat; [2]): 0
- Plant response rating, Wheat (wheat; [3]): 0
- Wheat plant response rating (wheat; [4]): 0
- Wheat plant response rating (wheat; [5]): 5
- Wheat plant response rating (wheat; [7]): 0
- Wild oats plant response rating (wild oat; [8]): 0
- Wild oats plant response rating (wild oat; [1]): 0
- Plant response rating, Wild oats (wild oat; [2]): 0
- Plant response rating, Wild oats (wild oat; [3]): 0
- Wild oats plant response rating (wild oat; [4]): 3
- Wild oats plant response rating (wild oat; [5]): 3
- Wild oats plant response rating (wild oat; [7]): 0
- Nutsedge plant response rating (purple nutsedge; [8]): 2
- Nutsedge plant response rating (purple nutsedge; [1]): 6
- Plant response rating, Nutsedge (purple nutsedge; [2]): 0
- Plant response rating, Nutsedge (purple nutsedge; [3]): 0
- Nutsedge plant response rating (purple nutsedge; [4]): 0
- Nutsedge plant response rating (purple nutsedge; [5]): 0
- Nutsedge plant response rating (purple nutsedge; [7]): 0
- Rice plant response rating (rice; [9]): 0
- Rice plant response rating (rice; [10]): 0
- Rice plant response rating (rice; [11]): 0
- S. Flatsedge plant response rating (smallflower flatsedge; [9]): 0
- S. Flatsedge plant response rating (smallflower flatsedge; [10]): 0
- S. Flatsedge plant response rating (smallflower flatsedge; [11]): 0
- Ducksalad plant response rating (duck salad; [9]): 0
- Ducksalad plant response rating (duck salad; [10]): 0
- Ducksalad plant response rating (duck salad; Rate 62 g/ha, Postemergence (flood test species), scale of 0 to 10 where 0 is no effect and 10 is complete control): 0
- Ducksalad plant response rating (duck salad; [11]): 0
